Data: ChEMBL document CHEMBL1138976, “Anti-HIV activity of stilbene-related heterocyclic compounds” (Bioorg Med Chem Lett, 2006)
Activity calls are given as the source filed them. The rule behind the calls is not given here.

Columns and labels:
[1] = test system: Human immunodeficiency virus; experiment: Ratio of cytotoxic activity to anti HIV activity; format: functional
[2] = target: T1, Protein Tat (Human immunodeficiency virus type 1 group M subtype B (isolate PCV12)(HIV-1)) (UniProt P04326); experiment: Inhibition of Tat activity in HeLa cells transfected with Tat-Luc at 100 uM; format: functional, cell-based
T1 sequence (whole entry): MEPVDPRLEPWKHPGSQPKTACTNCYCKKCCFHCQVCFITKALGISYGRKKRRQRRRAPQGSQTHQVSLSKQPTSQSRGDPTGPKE

[3] = test system: Human immunodeficiency virus; experiment: Specificity against NF-kappaB and Tat proteins assessed by activity in Hela Tet-ON assay; format: functional
[4] = Cytotoxicity by Propidium Iodide staining
[5] = test system: Human immunodeficiency virus; experiment: Inhibition of HIV replication by recombinant virus assay; format: functional, organism-based
[6] = target: Nuclear factor NF-kappa-B complex (Homo sapiens) (UniProt Q00653+P19838+Q04206); experiment: Inhibition of TNFalpha activated NF-kappaB mediated transactivation of HIV-1 LTR Luc in 5.1 cells at 100 uM; format: functional, cell-based
Nuclear factor NF-kappa-B complex (Homo sapiens), sequence (P19838 whole entry, looked up): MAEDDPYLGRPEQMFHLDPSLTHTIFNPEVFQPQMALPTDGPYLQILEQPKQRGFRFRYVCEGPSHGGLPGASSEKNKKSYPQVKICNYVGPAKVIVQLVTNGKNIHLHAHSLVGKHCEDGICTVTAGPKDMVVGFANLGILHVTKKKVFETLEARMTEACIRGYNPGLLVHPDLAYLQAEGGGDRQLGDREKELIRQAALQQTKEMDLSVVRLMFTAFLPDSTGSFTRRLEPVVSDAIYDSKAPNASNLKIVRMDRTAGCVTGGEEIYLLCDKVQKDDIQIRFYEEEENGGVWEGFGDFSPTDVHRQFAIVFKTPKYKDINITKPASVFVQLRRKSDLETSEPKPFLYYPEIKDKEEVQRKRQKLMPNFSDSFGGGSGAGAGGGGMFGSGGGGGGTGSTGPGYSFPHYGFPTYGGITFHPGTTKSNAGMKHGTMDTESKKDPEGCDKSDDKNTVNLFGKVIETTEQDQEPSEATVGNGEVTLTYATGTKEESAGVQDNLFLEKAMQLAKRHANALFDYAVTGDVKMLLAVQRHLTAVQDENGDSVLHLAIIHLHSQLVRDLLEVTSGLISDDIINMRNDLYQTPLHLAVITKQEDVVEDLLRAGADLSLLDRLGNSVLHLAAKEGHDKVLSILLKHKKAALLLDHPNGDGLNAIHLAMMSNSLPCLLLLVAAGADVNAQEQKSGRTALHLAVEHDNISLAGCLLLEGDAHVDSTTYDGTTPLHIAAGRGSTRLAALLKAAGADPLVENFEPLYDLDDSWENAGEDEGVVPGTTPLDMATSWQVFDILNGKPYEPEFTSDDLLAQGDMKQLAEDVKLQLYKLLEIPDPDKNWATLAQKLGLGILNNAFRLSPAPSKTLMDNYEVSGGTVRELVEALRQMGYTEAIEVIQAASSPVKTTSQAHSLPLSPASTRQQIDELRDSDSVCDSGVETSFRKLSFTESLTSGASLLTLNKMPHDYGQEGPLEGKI
Nuclear factor NF-kappa-B complex (Homo sapiens), sequence (Q00653 whole entry, looked up): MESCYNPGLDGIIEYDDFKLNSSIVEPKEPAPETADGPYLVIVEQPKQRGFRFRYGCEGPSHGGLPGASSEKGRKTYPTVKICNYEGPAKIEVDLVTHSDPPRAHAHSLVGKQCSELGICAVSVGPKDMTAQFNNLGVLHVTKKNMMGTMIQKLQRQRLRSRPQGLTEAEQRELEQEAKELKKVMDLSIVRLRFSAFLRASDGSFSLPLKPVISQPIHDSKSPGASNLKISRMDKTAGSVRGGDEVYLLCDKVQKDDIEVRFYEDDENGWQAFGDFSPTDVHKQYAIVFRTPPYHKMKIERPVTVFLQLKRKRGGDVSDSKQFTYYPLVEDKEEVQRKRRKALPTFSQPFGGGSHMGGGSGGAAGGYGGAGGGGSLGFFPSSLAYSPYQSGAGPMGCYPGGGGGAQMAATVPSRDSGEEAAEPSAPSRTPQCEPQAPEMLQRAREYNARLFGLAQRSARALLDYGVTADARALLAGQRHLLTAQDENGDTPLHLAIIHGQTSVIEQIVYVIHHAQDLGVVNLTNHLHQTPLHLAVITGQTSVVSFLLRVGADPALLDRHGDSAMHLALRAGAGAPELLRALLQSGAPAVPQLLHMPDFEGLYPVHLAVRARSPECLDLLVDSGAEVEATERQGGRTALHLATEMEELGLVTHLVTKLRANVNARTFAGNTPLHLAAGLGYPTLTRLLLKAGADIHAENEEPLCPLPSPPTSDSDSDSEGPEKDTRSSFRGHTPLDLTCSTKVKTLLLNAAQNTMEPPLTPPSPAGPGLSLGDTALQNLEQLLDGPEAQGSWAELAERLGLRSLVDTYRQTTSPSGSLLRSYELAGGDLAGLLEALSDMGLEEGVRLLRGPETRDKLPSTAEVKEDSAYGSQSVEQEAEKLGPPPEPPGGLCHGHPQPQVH
Nuclear factor NF-kappa-B complex (Homo sapiens), sequence (Q04206 whole entry, looked up): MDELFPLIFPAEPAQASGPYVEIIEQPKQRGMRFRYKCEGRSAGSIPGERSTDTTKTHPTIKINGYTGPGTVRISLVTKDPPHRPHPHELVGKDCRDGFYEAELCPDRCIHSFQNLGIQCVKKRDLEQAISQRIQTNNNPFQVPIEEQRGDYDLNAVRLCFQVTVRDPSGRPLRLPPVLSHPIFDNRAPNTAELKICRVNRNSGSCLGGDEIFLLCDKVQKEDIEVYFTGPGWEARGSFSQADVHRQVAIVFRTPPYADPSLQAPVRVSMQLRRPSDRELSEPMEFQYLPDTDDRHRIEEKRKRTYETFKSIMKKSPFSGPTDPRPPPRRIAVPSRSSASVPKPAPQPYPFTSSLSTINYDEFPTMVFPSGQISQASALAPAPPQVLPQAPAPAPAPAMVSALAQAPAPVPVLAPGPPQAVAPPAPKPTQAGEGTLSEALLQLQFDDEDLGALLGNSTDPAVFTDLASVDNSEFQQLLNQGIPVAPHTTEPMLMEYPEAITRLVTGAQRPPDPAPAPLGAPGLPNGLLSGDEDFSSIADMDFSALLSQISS

Row | inhibition [2] [%] | IC50 [5] [µM] | inhibition [6] [%] | IC50 ([5]; Human immunodeficiency virus 1) [µM] | Structure (SMILES) | Ratio CC50/IC50 [1] | Activity [3] | CC50 [4] [µM]
1 | < 0 | 133 | 71 | – | Cc1ccc2c(c1)/C(=C/c1ccccc1Cl)OC2=O | >1.4 | inactive | > 185
2 | 53.9 | – | 99 | 96.2 | Oc1nnc(Cc2ccc(Cl)cc2Cl)c2ccccc12 | 0.6 | inactive | 58
3 | 11.5 | – | 82.1 | 12.8 | CC(C)(C)n1nc(Cc2ccc(Cl)cc2)c2ccccc2c1=O | 5.6 | inactive | 72.1
4 | 28.4 | – | 14.9 | 19.5 | Oc1nnc(Cc2ccc(Cl)c(Cl)c2)c2cc(Cl)c(Cl)cc12 | 3.3 | – | 64.7
5 | < 0 | – | 99.7 | 66.7 | OC1(Cc2ccccc2Cl)c2ccccc2C2=NCCCN21 (stereo not drawn) | 1.2 | inactive | 78.6
6 | 86.6 | – | < 0 | 13.8 | OC1(Cc2ccc(Cl)cc2Cl)c2ccccc2C2=NCCN21 (stereo not drawn) | 6.3 | inactive | 87.5
7 | 3.8 | – | < 0 | 74.2 | COc1ccc(CC2(O)c3ccccc3C3=NCCCN32)cc1 (stereo not drawn) | >2.2 | – | > 162
8 | 51.2 | – | 100 | 60.8 | OC1(Cc2ccc3ccccc3c2)c2ccccc2C2=NCCCN21 (stereo not drawn) | 1.3 | inactive | 81
9 | < 0 | – | < 0 | 88.1 | O=c1c2ccccc2c(Cc2ccc(Cl)cc2)nn1-c1ccc(Br)cc1 | 1 | – | 91.8
10 | < 0 | – | 3.2 | 45.6 | O=C1O/C(=C\c2ccc(Cl)cc2)c2cc(Cl)c(Cl)cc21 | >3.4 | – | > 154
11 | 25.5 | – | 97.2 | 27.4 | Cn1nc(Cc2ccc3c(c2)OCO3)c2ccccc2c1=O | 4.8 | inactive | 131
12 | 29.6 | – | 54.8 | 89.5 | O=c1c2ccccc2c(Cc2ccc(Cl)cc2)nn1-c1ccc([N+](=O)[O-])cc1 | 1.1 | inactive | 96.3
13 | 11.2 | – | 65.9 | 22 | Oc1nnc(Cc2ccccc2Cl)c2cc(Cl)c(Cl)cc12 | >6.7 | inactive | > 147
14 | 75.3 | – | 100 | 27.6 | COc1ccc(CC2(O)c3cc(Cl)c(Cl)cc3C3=NCCN32)cc1 (stereo not drawn) | 1.6 | inactive | 44.1
15 | 29.8 | – | 67.3 | 41.6 | Oc1nnc(Cc2ccccc2Cl)c2ccccc12 | >4.5 | inactive | > 185
16 | 13.9 | – | 99.8 | 61.5 | CSc1ccc(CC2(O)c3ccccc3C3=NCCCN32)cc1 (stereo not drawn) | 2.3 | inactive | 142
17 | 43.2 | – | 100 | 11 | Cn1nc(Cc2cccc3ccccc23)c2ccccc2c1=O | 5.7 | Active | 62.9
18 | 14 | – | < 0 | 18.8 | Cn1nc(Cc2ccc(Cl)cc2Cl)c2ccccc2c1=O | 6 | – | 112
19 | 84.6 | – | 84.8 | 23.8 | O=C1O/C(=C\c2ccc(Cl)cc2)c2ccccc21 | >8.2 | Active | > 195

Row | inhibition [2] [%] | IC50 [5] [µM] | inhibition [6] [%] | IC50 ([5]; Human immunodeficiency virus 1) [µM] | Structure (SMILES) | Ratio CC50/IC50 [1] | Activity [3] | CC50 [4] [µM]
20 | 11.8 | – | 99.9 | 16.6 | Cn1nc(Cc2ccc3ccccc3c2)c2ccccc2c1=O | 3.5 | Active | 57.2
21 | 14.2 | – | 93.5 | 22.3 | CCn1nc(Cc2ccc(OC)cc2)c2ccccc2c1=O | 4 | inactive | 89.5
22 | 87.2 | – | 91.8 | 12.2 | O=C1O/C(=C\c2ccc3c(c2)OCO3)c2ccccc21 | 11.3 | Active | 138
23 | 6.7 | – | 83 | 16 | CCCCn1nc(Cc2ccc(OC)c(OC)c2)c2ccccc2c1=O | 4.4 | Active | 70.3
24 | 74 | – | 87.6 | 14.3 | COc1ccc(/C=C2\OC(=O)c3ccccc32)cc1 | – | Active | –
25 | 38.4 | – | < 0 | 71 | OC1(Cc2ccc(Cl)cc2)c2ccccc2C2=NCCN21 (stereo not drawn) | – | inactive | > 168
26 | 2.9 | – | 50 | 30.5 | C=CCn1nc(Cc2ccc(OC)cc2)c2ccccc2c1=O | 2.3 | inactive | 68.6
27 | 18.3 | – | 73 | 21.6 | Cn1nc(Cc2ccccc2Cl)c2ccccc2c1=O | >8.2 | inactive | > 176
28 | < 0 | – | 86.4 | 58.7 | O=c1c2ccccc2c(Cc2ccc(Cl)cc2)nn1-c1ccccc1 | 1.2 | inactive | 67.7
29 | 6.5 | – | < 0 | > 50 | O=C1O/C(=C\c2cccc3ccccc23)c2ccccc21 | – | – | –
30 | 76.8 | 24.4 | < 0 | – | O=C1O/C(=C\c2ccccc2Cl)c2ccccc21 (stereo in doubt; 1b) | >8 | inactive | > 195
31 | < 0 | – | 96.5 | 51.7 | COc1cc(Cc2nnc(O)c3ccccc23)cc(OC)c1OC | 2.6 | inactive | 135
32 | 60 | – | 67.7 | 26.1 | OC1(Cc2ccc(Cl)c(Cl)c2)c2ccccc2C2=NCCCN21 (stereo not drawn) | 3.3 | inactive | 85.2
33 | 99.6 | – | 100 | 22.8 | OC1(Cc2ccccc2Cl)c2cc(Cl)c(Cl)cc2C2=NCCN21 (stereo not drawn) | 1.3 | Active | 30.1
34 | < 0 | – | 12.6 | 15.7 | COc1ccc(Cc2nnc(O)c3ccccc23)cc1 | >9.5 | – | > 149
35 | 89.7 | – | 86.7 | 23.4 | CSc1ccc(/C=C2\OC(=O)c3ccccc32)cc1 | >8 | Active | > 187
36 | 11.4 | – | 19.4 | 47.5 | Cn1nc(Cc2ccccc2)c2ccccc2c1=O | >3.3 | – | > 156
37 | 91.8 | – | 96.8 | 15.8 | Cc1ccc2c(c1)/C(=C/c1ccc(Cl)cc1)OC2=O | – | Active | –
38 | 63.7 | – | < 0 | 119 | O=C1O/C(=C\c2ccc(Cl)cc2)c2c1cccc2[N+](=O)[O-] | <0.2 | Active | < 20.7
